Columns and labels:
CB2 receptor [1] = target: T1, CB2 receptor (Homo sapiens, UniProt P34972); assay: cAMP Assay #1: CB2 adenylylcyclase assay in CHO cells; type: cell-based; design: expressed in transfected cells; host or cells: CHO cells
Summary of the method: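 Agonism measured as cAMP production in CHO cells expressing human recombinant CB2, incubated with compound for 10 min at 37 °C. EC50 obtained by Hill-equation non-linear regression of mean replicate concentration-response data.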

CB2 receptor [2] = target: T1, CB2 receptor; assay: cAMP Assay #2: Hit Hunter cAMP assay, Gi-coupled agonist activity, CB2; type: cell-based; design: host or cells: cAMP Hunter cell lines; details: for CB2 fold selectivity: CB1 EC50 / CB2 EC50
CB1 receptor [3] = target: T2, CB1 receptor (Homo sapiens, UniProt P21554); assay: cell-based; design: host or cells: PathHunter cell lines
CB2 receptor [4] = target: T1, CB2 receptor; assay: cell-based; design: host or cells: cAMP Hunter cell lines
Summary of the method: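 PathHunter β-Arrestin enzyme fragment complementation cells, EA-tagged β-Arrestin and PK-tagged receptor, exposed to compound for 90 to 180 minutes at 37° C. or room temperature, 1% vehicle. Chemiluminescence read 1 h after detection reagent; agonist % activity relative to vehicle and MAX control ligand.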

CB1 receptor [5] = target: T2, CB1 receptor; assay: cAMP Assay #2: Hit Hunter cAMP assay, Gi-coupled agonist activity, CB1; type: cell-based; design: host or cells: PathHunter cell lines
[6] = CHO cells, 10 min 37° C., relative to 100 nM WIN 55212-2, read-out: CB2 Activity EC50 (cAMP)
[7] = Hit Hunter cAMP, 25 μM forskolin, control ligand CP55,940, read-out: CB2, EC50
[8] = PathHunter agonist mode, read-out: CB1 Activity (β-Arrestin)
[9] = PathHunter agonist mode, read-out: CB2 Activity (β-Arrestin)
[10] = Hit Hunter cAMP, 20 μM forskolin, control ligand CP55,940, read-out: CB1, EC50

T1 sequence (P34972 whole entry): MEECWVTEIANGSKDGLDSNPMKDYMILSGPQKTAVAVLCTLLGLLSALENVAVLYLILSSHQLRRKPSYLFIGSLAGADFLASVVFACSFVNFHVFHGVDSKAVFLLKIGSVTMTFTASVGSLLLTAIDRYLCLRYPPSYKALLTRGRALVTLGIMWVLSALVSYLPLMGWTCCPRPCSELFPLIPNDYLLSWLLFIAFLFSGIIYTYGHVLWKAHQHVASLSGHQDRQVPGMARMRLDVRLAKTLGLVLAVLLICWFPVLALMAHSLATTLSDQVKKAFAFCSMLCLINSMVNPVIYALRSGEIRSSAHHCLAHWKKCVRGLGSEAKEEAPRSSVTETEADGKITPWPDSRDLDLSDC
T2 sequence (P21554 whole entry): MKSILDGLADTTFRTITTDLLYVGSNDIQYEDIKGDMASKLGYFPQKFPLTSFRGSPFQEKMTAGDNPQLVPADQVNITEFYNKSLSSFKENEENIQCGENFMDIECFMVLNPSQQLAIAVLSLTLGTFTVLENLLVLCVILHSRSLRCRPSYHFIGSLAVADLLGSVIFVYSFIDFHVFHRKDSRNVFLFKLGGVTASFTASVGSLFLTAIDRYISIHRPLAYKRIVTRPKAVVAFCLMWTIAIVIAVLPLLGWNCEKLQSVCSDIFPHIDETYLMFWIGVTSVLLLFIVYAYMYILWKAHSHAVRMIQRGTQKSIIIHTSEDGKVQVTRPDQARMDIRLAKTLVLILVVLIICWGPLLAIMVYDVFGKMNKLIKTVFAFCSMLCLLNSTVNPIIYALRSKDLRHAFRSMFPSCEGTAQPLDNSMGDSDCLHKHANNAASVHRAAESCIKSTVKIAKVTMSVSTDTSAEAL

SMILES | EC50 (CB2 receptor [1]) [nM] | EC50 (CB2 receptor [2]) [nM] | CB2 fold selectivity (CB2 receptor [2]; Hit Hunter cAMP) | EC50 (CB1 receptor [3]) [nM] | EC50 (CB2 receptor [4]) [nM] | EC50 (CB1 receptor [5]) [nM] | EC50 (CB2 receptor [1]; [6]) [nM] | EC50 (CB2 receptor [2]; [7]) [nM] | EC50 (CB1 receptor [3]; [8]) [nM] | EC50 (CB2 receptor [4]; [9]) [nM] | EC50 (CB1 receptor [5]; [10]) [nM]
CCCCCCC(C)(C)c1cc(O)c2c(c1)OC(C)(C)[C@@H]1CC=C(C(=O)O)C[C@@H]21 [AJA, (6aR,10aR)-1-hydroxy-6,6-dimethyl-3-(2-methyl-2-octanyl)-6a,7,10,10a-tetrahydro-6H-benzo[c]chromene-9-carboxylic acid, reference compound] | 21 | 7 | 11.0 | 1240 | 11 | 77.1 |  |  |  |  | 
CCCCCCC(C)(C)c1cc(O)c2c(c1)OC(C)(C)[C@@H]1CC=C(C(=O)NC(C)(C)CCO)C[C@@H]21 [Compound 15, (6aR,10aR)-1-Hydroxy-N-(4-hydroxy-2-methylbutan-2-yl)-6,6-dimethyl-3-(2-methyloctan-2-yl)-6a,7,10,10a-tetrahydro-6H-benzo[c]chromene-9-carboxamide] |  |  | 164.1 |  |  |  | 7.5 | 2.7 | > 3000 | > 3000 | 448
CCCCCCC(C)(C)c1cc(O)c2c(c1)OC(C)(C)[C@@H]1CC=C(C(=O)NC(CO)CO)C[C@@H]21 [Compound 25, (6aR,10aR)-N-(1,3-Dihydroxypropan-2-yl)-1-hydroxy-6,6-dimethyl-3-(2-methyloctan-2-yl)-6a,7,10,10a-tetrahydro-6H-benzo[c]chromene-9-carboxamide] |  |  | 40.0 |  |  |  | 11 | 9 | > 3000 | 10 | 360
CCCCCCC(C)(C)c1cc(O)c2c(c1)OC(C)(C)[C@@H]1CC=C(C(=O)OC(C)C)C[C@@H]21 [Compound 29, Isopropyl (6aR,10aR)-1-hydroxy-6,6-dimethyl-3-(2-methyloctan-2-yl)-6a,7,10,10a-tetrahydro-6H-benzo[c]chromene-9-carboxylate] | 2.3 | 1 | 9.6 |  |  | 9.6 |  |  | 47 | 3 | 
CCCCCCC(C)(C)c1cc(O)c2c(c1)OC(C)(C)[C@@H]1CC=C(C(=O)NC[C@@H](O)CO)C[C@@H]21 [Compound 55, (6aR,10aR)-N—((R)-2,3-Dihydroxypropyl)-1-hydroxy-6,6-dimethyl-3-(2-methyloctan-2-yl)-6a,7,10,10a-tetrahydro-6H-benzo[c]chromene-9-carboxamide] |  |  | 30.5 |  |  |  | 5.2 | 5.7 | > 3000 | 6.9 | 175
CCCCCCC(C)(C)c1cc(O)c2c(c1)OC(C)(C)[C@@H]1CC=C(C(=O)NC[C@H](O)CO)C[C@@H]21 [Compound 56, (6aR,10aR)-N—((S)-2,3-Dihydroxypropyl)-1-hydroxy-6,6-dimethyl-3-(2-methyloctan-2-yl)-6a,7,10,10a-tetrahydro-6H-benzo[c]chromene-9-carboxamide] |  |  | 30.0 |  |  |  | 8.7 | 8.4 | > 3000 | 6.9 | 250

Reference: patent publication US20210284621A1 (priority 2018, published 2021)
